Source: patent US20260207563A1, “UREA COMPOUNDS AS ACTIVATORS OF POTASSIUM CHANNELS KV7.2/7.3 USEFUL IN THE TREATMENT OF CNS AND PNS DISORDERS” (ANGELINI PHARMA S.P.A., priority 2022, published 2026)

What was measured:
Format in all cases: cell-based
[1] = biological target: T1, homomeric KV7.4 channel (KCNQ4) (Homo sapiens, UniProt P56696); experiment: Automated patch-clamp (Qube) counter-screening assay against KV7.4 channel; conditions: CHO-K1 cells expressing KV7.4; class by maximal shift in the Vhalf at 30 μM
T1 construct: host or cells: CHO-K1
In short: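 EC50 and maximal shift in half-activation voltage come from 4-parameter logistic fits of mean Vhalf shifts. The series had ten 1-in-3 concentrations, highest 30 μM, each tested in quadruplicate. Recordings used automated Qube patch clamp on a stable CHO-K1 line expressing KCNQ4, and selectivity was judged from the 30 μM Vhalf shift.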

[2] = biological target: T2, heteromeric KV7.3/KV7.5 channel (KCNQ3, KCNQ5) (Homo sapiens, UniProt O43525+Q9NR82); experiment: Automated patch-clamp counter-screening against KV7.3/KV7.5 channel; conditions: HEK293 cells expressing Kv7.3/KV7.5; class by maximal shift in the Vhalf at 30 μM
T2 construct: host or cells: HEK293
In short: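 Potency came from a 4-parameter logistic fit of mean voltage-of-half-activation shifts, yielding EC50 and maximal shift; selectivity was judged on the shift at 30 μM. Compounds were applied at ten 3-fold dilutions from 30 μM in quadruplicate to HEK293 cells stably carrying Kv7.3 with tet-inducible Kv7.5.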

[3] = biological target: T3, heteromeric KV7.2/KV7.3 channels (KCNQ2, KCNQ3) (Homo sapiens, UniProt O43525+O43526); experiment: Automated patch-clamp (Sophion Qube 384) potency assay against KV7.2/KV7.3 channels; conditions: CHO-K1/Kv7.2/Kv7.3 cells; for EC50: EC50 from concentration-response of shift in Vhalf, 10 concentrations up to 30 μM, read-out: Kv7.2/7.3 EC50; for Kv7.2/7.3 ΔV1/2: maximal shift in the Vhalf from the top of the curve
T3 construct: expressed in transfected cells; host or cells: CHO-K1
In short: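 Activator potency: EC50 from 4-parameter logistic fit of mean Vhalf shift across ten 1-in-3 dilutions starting at 30 μM (n=4), with DMSO (typically 0.3%) control. Currents recorded by leak-subtracted whole-cell clamp of stable CHO-K1 KV7.2/KV7.3 cells, held at −80 mV, stepped −100 to +20 mV then 0 mV tails.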

SMILES | Kv7.4 selectivity criteria [1] | Kv7.3/7.5 selectivity criteria [2] | EC50 [3] | Kv7.2/7.3 ΔV1/2 [3]
Cc1ccccc1CNC(=O)NCc1ccnc(OCC(F)(F)F)c1 [Compound 37, 1-(2-Methylbenzyl)-3-((2-(2,2,2-trifluoroethoxy)pyridin-4-yl)methyl)urea] | A (Selective compounds showed Kv7.4 and/or Kv7.3/7.5 ΔV1/2 equal to or lower than 15 mV (letter A in table 3)) | A (Selective compounds showed Kv7.4 and/or Kv7.3/7.5 ΔV1/2 equal to or lower than 15 mV (letter A in table 3)) | 820 nM | 19.56 mV
O=C(NCCC1(C(F)(F)F)CC1)NCc1cc(OCC(F)(F)F)ncn1 [Compound 38, 1-((6-(2,2,2-Trifluoroethoxy)pyrimidin-4-yl)methyl)-3-(2-(1-(trifluoromethyl)cyclopropyl)ethyl)urea] | A (Selective compounds showed Kv7.4 and/or Kv7.3/7.5 ΔV1/2 equal to or lower than 15 mV (letter A in table 3)) | A (Selective compounds showed Kv7.4 and/or Kv7.3/7.5 ΔV1/2 equal to or lower than 15 mV (letter A in table 3)) | 2020 nM | 28.31 mV
Cc1cc(CNC(=O)NCCC2(C(F)(F)F)CC2)cc(OCC(F)(F)F)n1 [Compound 39, 1-((2-Methyl-6-(2,2,2-trifluoroethoxy)pyridin-4-yl)methyl)-3-(2-(1-(trifluoromethyl)cyclopropyl)ethyl)urea] | A (Selective compounds showed Kv7.4 and/or Kv7.3/7.5 ΔV1/2 equal to or lower than 15 mV (letter A in table 3)) | A (Selective compounds showed Kv7.4 and/or Kv7.3/7.5 ΔV1/2 equal to or lower than 15 mV (letter A in table 3)) | 1470 nM | 21.29 mV
CC(C)(CCNC(=O)NCc1ccnc(OCC(F)(F)F)c1)C(F)(F)F [Compound 41, 1-(4,4,4-Trifluoro-3,3-dimethylbutyl)-3-((2-(2,2,2-trifluoroethoxy)pyridin-4-yl)methyl)urea] | A (Selective compounds showed Kv7.4 and/or Kv7.3/7.5 ΔV1/2 equal to or lower than 15 mV (letter A in table 3)) | A (Selective compounds showed Kv7.4 and/or Kv7.3/7.5 ΔV1/2 equal to or lower than 15 mV (letter A in table 3)) | 428 nM | 29.72 mV
O=C(NCc1cccc(F)c1)NCc1ccnc(OCC(F)(F)F)c1 [Compound 42, 1-(3-Fluorobenzyl)-3-((2-(2,2,2-trifluoroethoxy)pyridin-4-yl)methyl)urea] | A (Selective compounds showed Kv7.4 and/or Kv7.3/7.5 ΔV1/2 equal to or lower than 15 mV (letter A in table 3)) | A (Selective compounds showed Kv7.4 and/or Kv7.3/7.5 ΔV1/2 equal to or lower than 15 mV (letter A in table 3)) | 872 nM | 16.7 mV
O=C(NCc1ccnc(OCC(F)(F)F)c1)NC1CCCCC1 [Compound 43, 1-Cyclohexyl-3-((2-(2,2,2-trifluoroethoxy)pyridin-4-yl)methyl)urea] | B (Non-selective compounds showed Kv7.4 and/or Kv7.3/7.5 ΔV1/2 higher than 15 mV (letter B in table 3)) | B (Non-selective compounds showed Kv7.4 and/or Kv7.3/7.5 ΔV1/2 higher than 15 mV (letter B in table 3)) | 765 nM | 53.72 mV
O=C(NCCC1(C(F)(F)F)CC1)NCc1ccnc(N2CC(C(F)(F)F)C2)c1 [Compound 44, 1-((2-(3-(Trifluoromethyl)azetidin-1-yl)pyridin-4-yl)methyl)-3-(2-(1-(trifluoromethyl)cyclopropyl)ethyl)urea] | A (Selective compounds showed Kv7.4 and/or Kv7.3/7.5 ΔV1/2 equal to or lower than 15 mV (letter A in table 3)) | A (Selective compounds showed Kv7.4 and/or Kv7.3/7.5 ΔV1/2 equal to or lower than 15 mV (letter A in table 3)) | 6300 nM | 17.02 mV
Cc1ccccc1NC(=O)NCc1ccnc(OCC(F)(F)F)c1 [Compound 46, 1-(o-Tolyl)-3-((2-(2,2,2-trifluoroethoxy)pyridin-4-yl)methyl)urea] | B (Non-selective compounds showed Kv7.4 and/or Kv7.3/7.5 ΔV1/2 higher than 15 mV (letter B in table 3)) | B (Non-selective compounds showed Kv7.4 and/or Kv7.3/7.5 ΔV1/2 higher than 15 mV (letter B in table 3)) | 432 nM | 21.41 mV
C[C@H](Oc1cc(CNC(=O)NCCC2(C(F)(F)F)CC2)ccn1)C(F)(F)F [Compound 47, (S)-1-(2-(1-(Trifluoromethyl)cyclopropyl)ethyl)-3-((2-((1,1,1-trifluoropropan-2-yl)oxy)pyridin-4-yl)methyl)urea] | A (Selective compounds showed Kv7.4 and/or Kv7.3/7.5 ΔV1/2 equal to or lower than 15 mV (letter A in table 3)) | A (Selective compounds showed Kv7.4 and/or Kv7.3/7.5 ΔV1/2 equal to or lower than 15 mV (letter A in table 3)) | 254 nM | 26.23 mV
CC(C)(OCCNC(=O)NCc1ccnc(OCC(F)(F)F)c1)C(F)(F)F [Compound 48, 1-(2-((1,1,1-Trifluoro-2-methylpropan-2-yl)oxy)ethyl)-3-((2-(2,2,2-trifluoroethoxy)pyridin-4-yl)methyl)urea] | A (Selective compounds showed Kv7.4 and/or Kv7.3/7.5 ΔV1/2 equal to or lower than 15 mV (letter A in table 3)) | A (Selective compounds showed Kv7.4 and/or Kv7.3/7.5 ΔV1/2 equal to or lower than 15 mV (letter A in table 3)) | 2410 nM | 22.74 mV
O=C(NCCC1(C(F)(F)F)CC1)NCc1ccnc(OCC(F)(F)F)n1 [Compound 49, 1-((2-(2,2,2-Trifluoroethoxy)pyrimidin-4-yl)methyl)-3-(2-(1-(trifluoromethyl)cyclopropyl)ethyl)urea] | A (Selective compounds showed Kv7.4 and/or Kv7.3/7.5 ΔV1/2 equal to or lower than 15 mV (letter A in table 3)) | A (Selective compounds showed Kv7.4 and/or Kv7.3/7.5 ΔV1/2 equal to or lower than 15 mV (letter A in table 3)) | 4230 nM | 23.89 mV
C[C@@H](Oc1cc(CNC(=O)NCCC2(C(F)(F)F)CC2)ccn1)C(F)(F)F [Compound 51, (R)-1-(2-(1-(Trifluoromethyl)cyclopropyl)ethyl)-3-((2-((1,1,1-trifluoropropan-2-yl)oxy)pyridin-4-yl)methyl)urea] | A (Selective compounds showed Kv7.4 and/or Kv7.3/7.5 ΔV1/2 equal to or lower than 15 mV (letter A in table 3)) | A (Selective compounds showed Kv7.4 and/or Kv7.3/7.5 ΔV1/2 equal to or lower than 15 mV (letter A in table 3)) | 289 nM | 33.62 mV
O=C(NCCC1(C(F)(F)F)CC1)NCc1ccnc(OCc2ncccc2F)c1 [Compound 54, 1-((2-((3-Fluoropyridin-2-yl)methoxy)pyridin-4-yl)methyl)-3-(2-(1-(trifluoromethyl)cyclopropyl)ethyl)urea] | A (Selective compounds showed Kv7.4 and/or Kv7.3/7.5 ΔV1/2 equal to or lower than 15 mV (letter A in table 3)) | A (Selective compounds showed Kv7.4 and/or Kv7.3/7.5 ΔV1/2 equal to or lower than 15 mV (letter A in table 3)) | 7610 nM | 22.67 mV
O=C(NCc1ccnc(OCC(F)(F)F)c1)N[C@H]1CCCC[C@H]1O [Compound 58, 1-((1S,2R)-2-Hydroxycyclohexyl)-3-((2-(2,2,2-trifluoroethoxy)pyridin-4-yl)methyl) urea] | B (Non-selective compounds showed Kv7.4 and/or Kv7.3/7.5 ΔV1/2 higher than 15 mV (letter B in table 3)) | B (Non-selective compounds showed Kv7.4 and/or Kv7.3/7.5 ΔV1/2 higher than 15 mV (letter B in table 3)) | 10500 nM | 48.9 mV
O=C(NCc1ccnc(OCC(F)(F)F)c1)N[C@@H]1CCCC[C@@H]1O [Compound 62, 1-((1R,2S)-2-Hydroxycyclohexyl)-3-((2-(2,2,2-trifluoroethoxy)pyridin-4-yl)methyl) urea] | A (Selective compounds showed Kv7.4 and/or Kv7.3/7.5 ΔV1/2 equal to or lower than 15 mV (letter A in table 3)) | B (Non-selective compounds showed Kv7.4 and/or Kv7.3/7.5 ΔV1/2 higher than 15 mV (letter B in table 3)) | 11700 nM | 16.94 mV
O=C(NCc1ccnc(OCC(F)(F)F)c1)N[C@H]1CCCC[C@@H]1O [Compound 63, 1-((1S,2S)-2-Hydroxycyclohexyl)-3-((2-(2,2,2-trifluoroethoxy)pyridin-4-yl)methyl)urea] | B (Non-selective compounds showed Kv7.4 and/or Kv7.3/7.5 ΔV1/2 higher than 15 mV (letter B in table 3)) | B (Non-selective compounds showed Kv7.4 and/or Kv7.3/7.5 ΔV1/2 higher than 15 mV (letter B in table 3)) | 11800 nM | 33.01 mV
